# Structures can show the parent of a compound that is named as a salt.
# Molecular target: human FGFR-1 (Homo sapiens, UniProt P11362)
# Assay: FGFR-1 high ATP kinase assay (TR-FRET)
# Type: biochemical
# Details: 2 mM ATP; 15 min pre-incubation with enzyme; compounds of the invention
# Chain of human FGFR-1 (P11362 22-822 limits assumed): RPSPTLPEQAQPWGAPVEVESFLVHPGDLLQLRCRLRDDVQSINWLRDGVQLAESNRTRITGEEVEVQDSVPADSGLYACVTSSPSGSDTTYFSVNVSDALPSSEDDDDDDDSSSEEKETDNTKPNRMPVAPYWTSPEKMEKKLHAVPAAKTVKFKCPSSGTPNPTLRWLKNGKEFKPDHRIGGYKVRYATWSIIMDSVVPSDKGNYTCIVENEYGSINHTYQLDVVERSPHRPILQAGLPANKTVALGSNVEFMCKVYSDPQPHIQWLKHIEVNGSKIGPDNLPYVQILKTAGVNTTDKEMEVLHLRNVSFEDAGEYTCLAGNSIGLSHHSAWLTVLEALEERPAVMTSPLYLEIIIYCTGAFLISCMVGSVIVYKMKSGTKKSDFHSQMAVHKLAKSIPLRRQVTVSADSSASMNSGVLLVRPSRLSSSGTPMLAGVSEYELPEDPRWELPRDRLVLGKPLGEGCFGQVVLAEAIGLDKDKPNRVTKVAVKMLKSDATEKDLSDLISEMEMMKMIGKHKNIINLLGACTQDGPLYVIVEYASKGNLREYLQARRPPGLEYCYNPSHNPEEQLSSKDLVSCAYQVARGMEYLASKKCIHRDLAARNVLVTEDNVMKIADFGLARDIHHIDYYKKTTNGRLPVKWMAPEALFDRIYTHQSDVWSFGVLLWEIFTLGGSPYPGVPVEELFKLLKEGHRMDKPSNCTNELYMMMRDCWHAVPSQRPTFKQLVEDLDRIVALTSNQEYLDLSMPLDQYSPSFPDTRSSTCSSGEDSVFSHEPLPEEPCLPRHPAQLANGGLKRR
row,SMILES,IC50 [nM]
1,"CCOCc1c(-c2cc3cc(C)cc(OC)c3s2)c2c(N)ncnn2c1CN[C@H]1CCNC1=O [Example 93, (3S)-3-({[4-Amino-6-(ethoxymethyl)-5-(7-methoxy-5-methyl-1-benzothiophen-2-yl)pyrrolo[2,1-f]-[1,2,4]triazin-7-yl]methyl}amino)pyrrolidin-2-one]",5.5
2,"COc1cc(C)cc2cc(-c3c(COC(C)C)c(CN4CCNCC4)n4ncnc(N)c34)sc12 [Example 27, 6-(Isopropoxymethyl)-5-(7-methoxy-5-methyl-1-benzothiophen-2-yl)-7-(piperazin-1-ylmethyl)pyrrolo[2,1-f][1,2,4]triazin-4-amine formiate]",1.3
3,CCOCc1c(-c2cc3cc(C)cc(OC)c3s2)c2c(N)ncnn2c1CN1CCC(O)C1 (centres unmarked) [Example 101],30.8
4,"CCOCc1c(-c2cc3cc(C)cc(OC)c3s2)c2c(N)ncnn2c1CN1CCOCC1 [Example 10, 6-(Ethoxymethyl)-5-(7-methoxy-5-methyl-1-benzothiophen-2-yl)-7-(morpholin-4-ylmethyl)pyrrolo[2,1-f][1,2,4]triazin-4-amine]",12.7
5,"CCCCOCc1c(-c2cc3cc(C)cc(OC)c3s2)c2c(N)ncnn2c1CN1CCNCC1 [Example 23, 6-(Butoxymethyl)-5-(7-methoxy-5-methyl-1-benzothiophen-2-yl)-7-(piperazin-1-ylmethyl)pyrrolo-[2,1-f][1,2,4]triazin-4-amine formiate]",17.9
6,"COc1cc(C)cc2cc(-c3c(-c4cnco4)c(CN4CCNCC4)n4ncnc(N)c34)sc12 [Example 61, 5-(7-Methoxy-5-methyl-1-benzothiophen-2-yl)-6-(1,3-oxazol-5-yl)-7-(piperazin-1-ylmethyl)pyrrolo[2,1-f][1,2,4]triazin-4-amine trihydrochloride]",0.5
7,CCOCc1c(-c2cc3cc(C)cc(OC)c3s2)c2c(N)ncnn2c1C(N)=O [Example 109],8.4
8,"COC(=O)COCc1c(-c2cc3cc(C)cc(OC)c3s2)c2c(N)ncnn2c1CN1CCNCC1 [Example 31, Methyl{[4-amino-5-(7-methoxy-5-methyl-1-benzothiophen-2-yl)-7-(piperazin-1-ylmethyl)pyrrolo[2,1-f][1,2,4]triazin-6-yl]methoxy}acetate]",1.5
9,"COCc1c(-c2cc3cc(C)cc(OC)c3s2)c2c(N)ncnn2c1CN1CCNCC1 [Example 17, 6-(Methoxymethyl)-5-(7-methoxy-5-methyl-1-benzothiophen-2-yl)-7-(piperazin-1-ylmethyl)pyrrolo[2,1-f][1,2,4]triazin-4-amine formiate]",0.9
10,"COCc1c(-c2cc3cccc(OC)c3s2)c2c(N)ncnn2c1CN1CCNC(=O)C1 [Example 88, 4-{[4-Amino-5-(7-methoxy-1-benzothiophen-2-yl)-6-(methoxymethyl)pyrrolo[2,1-f][1,2,4]triazin-7-yl]methyl}piperazin-2-one]",79.6
11,"CNCc1c(-c2cc3cc(C)cc(OC)c3s2)c2c(N)ncnn2c1CN1CCNCC1 [Example 36, 5-(7-Methoxy-5-methyl-1-benzothiophen-2-yl)-6-[(methylamino)methyl]-7-(piperazin-1-ylmethyl)pyrrolo[2,1-f][1,2,4]triazin-4-amine trihydrochloride]",3
12,"CCN(CC)Cc1c(-c2cc3cc(C)cc(OC)c3s2)c2c(N)ncnn2c1CN1CCNCC1 [Example 43, 6-[(Diethylamino)methyl]-5-(7-methoxy-5-methyl-1-benzothiophen-2-yl)-7-(piperazin-1-ylmethyl)pyrrolo[2,1-f][1,2,4]triazin-4-amine trihydrochloride]",8.6
13,"CCCOCc1c(-c2cc3cc(C)cc(OC)c3s2)c2c(N)ncnn2c1CN1CCNCC1 [Example 24, 5-(7-Methoxy-5-methyl-1-benzothiophen-2-yl)-7-(piperazin-1-ylmethyl)-6-(propoxymethyl)pyrrolo[2,1-f][1,2,4]triazin-4-amine bis(formiate)]",1.3
14,CCOCc1c(-c2cc3cc(C)cc(OC)c3s2)c2c(N)ncnn2c1CN1CCCC1 [Example 96],54.5
15,CCOCc1c(-c2cc3cc(C)cc(OC)c3s2)c2c(N)ncnn2c1CN1CC(O)C1 [Example 97],16.4
16,CCOCc1c(-c2cc3cc(C)cc(OC)c3s2)c2c(N)ncnn2c1CN1CCN(C2CC2)CC1 [Example 100],54.5
17,"COc1cc(C)cc2cc(-c3c(CO)c(CN4CCNCC4)n4ncnc(N)c34)sc12 [Example 12, [4-Amino-5-(7-methoxy-5-methyl-1-benzothiophen-2-yl)-7-(piperazin-1-ylmethyl)pyrrolo[2,1-f]-[1,2,4]triazin-6-yl]methanol bis(formiate)]",3.3
18,"CCOCc1c(-c2cc3cc(C)cc(OC)c3s2)c2c(N)ncnn2c1CN[C@@H]1CCNC1=O [Example 8, (3R)-3-({[4-Amino-6-(ethoxymethyl)-5-(7-methoxy-5-methyl-1-benzothiophen-2-yl)pyrrolo-[2,1-f][1,2,4]triazin-7-yl]methyl}amino)pyrrolidin-2-one]",9.4
19,CCOCc1c(-c2cc3cc(C)cc(OC)c3s2)c2c(N)ncnn2c1CN1CCCCO1 [Example 94],81.9
20,CCOCc1c(-c2cc3cc(C)cc(OC)c3s2)c2c(N)ncnn2c1CN1CCNC(=O)C1C (centres unmarked) [Example 105],8.7
21,CCOCc1c(-c2cc3cc(C)cc(OC)c3s2)c2c(N)ncnn2c1CN1CNC(=O)C1 [Example 104],5.6

# The remaining lines, values ahead:
row,IC50 [nM],SMILES
1,24.9,CCOCc1c(-c2cc3cc(C)cc(OC)c3s2)c2c(N)ncnn2c1C(=O)NC1CC1 [Example 115]
2,27.3,"COCc1c(-c2cc3cc(OC)cc(OC)c3s2)c2c(N)ncnn2c1CN1CCNC(=O)C1 [Example 124, 4-{[4-Amino-5-(5,7-dimethoxy-1-benzothiophen-2-yl)-6-(methoxymethyl)pyrrolo[2,1-f][1,2,4]-triazin-7-yl]methyl}piperazin-2-one]"
3,18.9,CCOCc1c(-c2cc3cc(C)cc(OC)c3s2)c2c(N)ncnn2c1C(=O)N1CC(F)(F)C1 [Example 122]
4,3.7,CCOCc1c(-c2cc3cc(C)cc(OC)c3s2)c2c(N)ncnn2c1C(=O)N[C@H]1CCNC1=O [Example 116]
5,6.8,CCOCc1c(-c2cc3cc(C)cc(OC)c3s2)c2c(N)ncnn2c1C(=O)N1CCC(O)C1 (centres unmarked) [Example 118]
6,25.1,CCOCc1c(-c2cc3cc(C)cc(OC)c3s2)c2c(N)ncnn2c1C(=O)N1CCS(=O)(=O)CC1 [Example 123]
7,27,CCNC(=O)c1c(COCC)c(-c2cc3cc(C)cc(OC)c3s2)c2c(N)ncnn12 [Example 111]
8,17.5,CCOCc1c(-c2cc3cc(C)cc(OC)c3s2)c2c(N)ncnn2c1C(=O)NC [Example 110]
9,52.7,CCOCc1c(-c2cc3cc(C)cc(OC)c3s2)c2c(N)ncnn2c1C(=O)N1CCC(C(N)=O)CC1 [Example 113]
10,5,"COc1cc(C)cc2cc(-c3c(CN4CCNC(=O)C4)c(CO)n4ncnc(N)c34)sc12 [Example 125, 4-{[4-Amino-7-(hydroxymethyl)-5-(7-methoxy-5-methyl-1-benzothiophen-2-yl)pyrrolo[2,1-f]-[1,2,4]triazin-6-yl]methyl}piperazin-2-one]"

# Same assay, conditions: 2 mM ATP; 15 min pre-incubation with enzyme; compounds of the invention; dihydrochloride
row,SMILES,IC50 [nM]
1,"CCOCc1c(-c2cc3cc(C)cc(OC)c3s2)c2c(N)ncnn2c1CN[C@@H]1CCNC1=O [Example 7, (3R)-3-({[4-Amino-6-(ethoxymethyl)-5-(7-methoxy-5-methyl-1-benzothiophen-2-yl)pyrrolo-[2,1-f][1,2,4]triazin-7-yl]methyl}amino)pyrrolidin-2-one dihydrochloride]",4.2

# From patent US9206184B2, “Disubstituted benzothienyl-pyrrolotriazines and uses thereof” (BAYER INTELLECTUAL PROPERTY GmbH, priority 2011, dated 2015)
